Tests used:
[1] = system: polyglucosan body (PB) in APBD patient-derived fibroblasts; assay: High content (image-based) PAS screening assay for polyglucosan bodies; assay type: cell-based, human; settings: 0, 1, 5, 10 and 50 μM
Protocol: All the steps of the assay were performed automatically using a Freedom Evo 150 liquid handling robot (Tecan). APBD patient-derived fibroblasts were seeded at a density of 800 cells/well in DMEM (Gibco) supplemented with 1 mM sodium pyruvate (Gibco), 1% antibiotics (Biological Industries, Israel) and 5% fetal bovine serum (Hyclone) into 384 well microclear plates (Greiner). The plates were transferred by the robotic arm (RoMa) into an automated incubator (Liconic), integrated with the robotic system, where they were incubated at 37° C. with 5% CO2. Following 24 h incubation, the medium was replaced by the robot using medium supplemented with 10 μM of each screened compound (0.1% DMSO final concentration, all prepared by the robot). The screened compounds were part of the Diverset CL collection purchased from ChemBridge (10,084 out of 50,000 molecules).
Next, these cells were cultured for another 24 h in the automated incubator, and, using the robot, washed them with PBS (Biological Industries, Israel), the cells were fixed with 4% paraformaldehyde (PFA), washed again with PBS, neutralized the previously added PFA by ammonium chloride (Sigma Aldrich), washed with PBS, permeabilized with 0.1% Triton X-100 (Sigma Aldrich), and washed again with PBS.
Following this, a robot was used to treat the fixed cells with 0.5 g/dl diastase (or amylase, Sigma Aldrich) for 5 minutes at 37° C. in the automated incubator, wash with PBS, stained with PAS (Merck), Hoechst 33342 (Sigma Aldrich) and Cell Mask Deep Red (Molecular Probes) and wash with PBS. Images of stained cells were then acquired by the IN Cell Analyzer 2000 (GE Healthcare) and analyzed using the IN Cell Investigator (GE Healthcare) applying an algorithm that quantified the PAS signal within each Cell Mask stained cell.
Images were segmented based on the Cell Mask signal which was linked with the segmentation of the nuclei, employing an empirically established sensitivity and kernel size for allowing the best segmentation. Once these nucleus-cytoplasm complex objects were selected, the software calculated the number of these objects (cell number) as well as the intensity of the PAS signal within each of them. All the assay parameters (including the acquisition exposure times, objective, and the analysis parameters) were kept constant throughout the whole screening campaign for allowing comparison of signals obtained from different batches of assay within the campaign.
The assay was performed as mentioned above, but with compound concentrations of 1, 5, 10, and 50 μM, instead of a constant concentration of 10 μM.
The discarded data was presumably associated with cells affected by toxic compounds. In the remaining data, the measured population mean PB intensity was normalized. Based on a series of images used for training, compounds were considered as positive only where following treatment the normalized PB mean intensity was at least under −1.2 z-score of the scale. Following this approach, 85 potential hits out of the 10,084 screened compounds were selected (0.84%).

recombinant human GS1 = target: T1, recombinant human GS1 (Homo sapiens, UniProt P13807); assay: In vitro GS activity assay; assay type: biochemical; settings: 50 μM; unpaired t-tests, p<0.05
T1 sequence (P13807 1-737): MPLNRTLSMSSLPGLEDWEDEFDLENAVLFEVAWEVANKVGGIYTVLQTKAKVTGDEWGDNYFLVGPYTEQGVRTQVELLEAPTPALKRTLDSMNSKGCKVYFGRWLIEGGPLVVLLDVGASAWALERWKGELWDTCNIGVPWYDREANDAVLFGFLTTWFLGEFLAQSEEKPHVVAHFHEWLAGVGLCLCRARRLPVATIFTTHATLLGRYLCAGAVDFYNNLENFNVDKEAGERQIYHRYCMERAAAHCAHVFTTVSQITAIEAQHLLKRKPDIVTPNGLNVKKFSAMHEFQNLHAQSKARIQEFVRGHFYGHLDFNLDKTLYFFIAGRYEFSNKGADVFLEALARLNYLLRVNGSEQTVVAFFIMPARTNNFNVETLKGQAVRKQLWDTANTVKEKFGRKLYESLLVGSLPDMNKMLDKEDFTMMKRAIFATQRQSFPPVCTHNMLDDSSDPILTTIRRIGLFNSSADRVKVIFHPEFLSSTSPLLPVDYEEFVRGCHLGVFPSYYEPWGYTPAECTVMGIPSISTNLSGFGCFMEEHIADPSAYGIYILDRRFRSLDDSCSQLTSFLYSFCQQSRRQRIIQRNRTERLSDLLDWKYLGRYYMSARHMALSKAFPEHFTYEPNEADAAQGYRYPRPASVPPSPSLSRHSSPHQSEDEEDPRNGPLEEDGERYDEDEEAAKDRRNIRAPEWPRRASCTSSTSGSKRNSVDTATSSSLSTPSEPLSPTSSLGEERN
Protocol: The reaction was carried out in 96-well plates containing 50 μl of reaction volume (50 mM Tris, pH8, 20 mM EDTA, 25 mM KF, 2 mg/ml glycogen, 10 mM Glucose-6-Phosphate, 1.65 mM UDP[14C]glucose and 100 mM UDP-glucose). To test the inhibitory effect of the hits, each one was included in the reaction at a final concentration of 50 μM. The reaction was initiated with the addition of 20 nM recombinant human GS1, followed by incubation at 37° C. for 30 min. The reaction was then stopped with the addition of 100 μl cold 100% ethanol, and the total suspension was transferred into a 96-well filter plate. Vacuum was applied to remove the ethanol. Five washing steps with 150 μl of cold 66% ethanol then fully removed any non-incorporated UDP[14C]glucose, while the labelled glycogen stayed on the well filters. The plate was dried at 37° C. incubator for 30 min. 50 μl of scintillation fluid was added to each well and the plate was read for 14C signal on Microplate scintillation and luminescence counter Top Count (Perkin Elmer).

SMILES | dose response of diastase resistant cell associated mean PAS intensity normalized by z-score [1] | effect on GS activity (direction of change) (recombinant human GS1)
CC(C)n1ccnc1CN1CCC(c2[nH]ncc2-c2cccc(F)c2)CC1 [UDP #6, 4-[4-(3-fluorophenyl)-1H-pyrazol-5-yl]-1-[(1-isopropyl-1H-imidazol-2-yl)methyl]piperidine] | concentration dependent | increasing
Cc1nc(C(C)C)cc(N2CCN(Cc3ncccc3C)CC2)n1 [UDP #7, 4-isopropyl-2-methyl-6-{4-[(3-methylpyridin-2-yl)methyl]piperazin-1-yl}pyrimidine] | lowered mean normalized PAS intensity in a non-dose responding manner | increasing
CC1CCC(=O)N1c1ccc(-n2cnnc2)cc1 (stereo not drawn) [UDP #8, 5-methyl-1-[4-(4H-1,2,4-triazol-4-yl)phenyl]pyrrolidin-2-one] | concentration dependent | increasing
Cc1ccc2c(c1)c(CNC(=O)c1ccccc1C1CCNC1)nn2C (stereo not drawn) [UDP #10, N-[(1,5-dimethyl-1H-indazol-3-yl)methyl]-2-(3-pyrrolidinyl)benzamide] | lowered mean normalized PAS intensity in a non-dose responding manner | except for compound #10, have significantly changed GS activity
O=C(c1ccoc1)N1CCOc2c(O)cc(-c3cccc(Cl)c3)cc2C1 [UDP #12, 7-(3-chlorophenyl)-4-(3-furoyl)-2,3,4,5-tetrahydro-1,4-benzoxazepin-9-ol] | concentration dependent | increasing
Cc1ccc(NC(=O)CCn2cnc(-c3ccccc3)c2C2CCOC2)c(C)c1 (stereo not drawn) [UDP #18, N-(2,4-dimethylphenyl)-3-[4-phenyl-5-(tetrahydrofuran-3-yl)-1H-imidazol-1-yl]propanamide] | lowered mean normalized PAS intensity in a non-dose responding manner | increasing
